We go through 24 molecules from US9394282B2, “Pyrazole carboxamides as Janus kinase inhibitors” (Merck Sharp & Dohme Corp., priority 2011, dated 2016).

In one test the target is JAK1 (Homo sapiens (Human), UniProt P23458). The experiment in a line: Jak biochemical HTRF assay, JAK1. Particulars: recombinant purified GST-tagged catalytic domain; HTRF format; [ATP] 31.8 μM. The text has this:
(§1) Jak Biochemical HTRF Assay Protocol
(§2) Subsequent reagent additions employed an Agilent Bravo.
For orientation: In TR-FRET formats the signal depends on donor and acceptor labels being close together.

A further test addresses JAK2 (Homo sapiens (Human), UniProt O60674). The experiment in a line: Jak biochemical HTRF assay, JAK2. To be noted: recombinant purified GST-tagged catalytic domain, HTRF format.
Source text: as §1, §2

Structures are written as SMILES.

Chain of JAK2 (O60674 849-1124): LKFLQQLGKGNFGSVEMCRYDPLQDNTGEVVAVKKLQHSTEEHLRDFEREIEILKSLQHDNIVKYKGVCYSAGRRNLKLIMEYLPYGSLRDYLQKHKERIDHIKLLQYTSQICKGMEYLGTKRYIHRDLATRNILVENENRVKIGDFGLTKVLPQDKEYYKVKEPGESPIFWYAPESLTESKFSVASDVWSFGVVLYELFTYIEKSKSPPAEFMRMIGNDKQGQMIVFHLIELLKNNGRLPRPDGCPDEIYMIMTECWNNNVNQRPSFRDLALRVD
Chain of JAK1 (P23458 875-1153): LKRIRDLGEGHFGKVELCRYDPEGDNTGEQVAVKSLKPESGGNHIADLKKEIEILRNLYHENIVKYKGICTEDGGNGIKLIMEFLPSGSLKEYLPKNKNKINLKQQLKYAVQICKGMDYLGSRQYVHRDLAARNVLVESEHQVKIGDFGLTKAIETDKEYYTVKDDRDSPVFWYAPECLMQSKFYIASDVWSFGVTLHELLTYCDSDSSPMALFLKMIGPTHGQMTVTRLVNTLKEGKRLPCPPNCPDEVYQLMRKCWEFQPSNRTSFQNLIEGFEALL

Turning to `N#C[C@@H]1CN(C(=O)OCC2(N)CC2)CC[C@H]1n1cc(C(N)=O)c(Nc2ccc(F)cc2)n1` (racemic) [Example 5-8, (1-aminocyclopropyl)methyl (3R,4R and 3S,4S)-4-{4-carbamoyl-3-[(4-fluorophenyl)amino]-lH-pyrazol-1-yl}-3-cyanopiperidine-1-carboxylate], the half-inhibitory concentration (IC50) – broadly, the concentration that gives 50% inhibition – amounted to 13 nM on JAK1 and 703 nM on JAK2 ([ATP] 8.5 μM).

On to `N#C[C@@H]1CCN(CC2CCOC2)C[C@H]1n1cc(C(N)=O)c(Nc2ccc(F)cc2)n1` (mixture of isomers) [Example 6-21, 1-[(3S,4R and 3R,4S)-4-cyano-1-(tetrahydrofuran-3-ylmethyl)piperidin-3-yl]-3-[(4-fluorophenyl)amino]-1H-pyrdzole-4-carboxamide], for which the figures for the IC50 on JAK1 and on JAK2 ([ATP] 8.5 μM) were 6 nM and 63 nM, respectively.

`N#C[C@@H]1CN(C(=O)OCCN2CCCC2)CC[C@H]1n1cc(C(N)=O)c(Nc2ccc(F)cc2)n1` (racemic) [Example 5-19, 2-pyrrolidin-1-ylethyl (3R,4R and 3S,4S)-4-{4-carbamoyl-3-[(4-fluorophenyl)amino]-1H-pyrazol-1-yl}-3-cyanopiperidine-1-carboxylate]: the IC50 came to 22 nM at JAK1 and 1100 nM at JAK2 ([ATP] 8.5 μM).

For the molecule `CC(OC(=O)N1CC[C@H](n2cc(C(N)=O)c(Nc3ccc(F)cc3)n2)[C@H](C#N)C1)C1CC1` (mixture of isomers) [Example 5-68, 1-cyclopropylethyl (3R,4S and 3S,4R)-4-{4-carbamoyl-3-[(4-fluorophenyl)amino]-1H-pyrazol-1-yl}-3-cyanopiperidine-1-carboxylate], the half-inhibitory concentration (IC50) was 434 nM at JAK1 and greater than 1500 nM at JAK2 ([ATP] 8.5 μM).

Consider `N#C[C@@H]1CN(C(=O)OC(CF)CF)CC[C@H]1n1cc(C(N)=O)c(Nc2ccc(F)cc2)n1` (racemic) [Example 5-31, 2-fluoro-1-(fluoromethyl)ethyl (3R,4R and 3S,4S)-4-{4-carbamoyl-3-[(4-fluorophenyl)amino]-1H-pyrazol-1-yl}-3-cyanopiperidine-1-carboxylate], for which the values for the half-inhibitory concentration (IC50) on JAK1 and at JAK2 ([ATP] 8.5 μM) were 6 nM and 133 nM, respectively.

On to `N#C[C@@H]1CN(Cc2cccnn2)CC[C@H]1n1cc(C(N)=O)c(Nc2ccc(F)cc2)n1` (racemic) [Example 6-22, 1-[(3R,4R and 3S,4S)-3-cyano-1-(pyridazin-3-ylmethyl)piperidin-4-yl]-3-[(4-fluorophenyl)amino]-1H-pyrazole-4-carboxamide], for which the IC50 at JAK1 stood at 19 nM; on JAK2 ([ATP] 8.5 μM), 220 nM.

For the molecule `CC1(c2ccc(Nc3nn([C@@H]4COCC[C@H]4C#N)cc3C(N)=O)cc2)COC1` (single isomer, unassigned) [Example 9-26, 1-[(3S,4R or 3R,4S)-4-cyanotetrahydro-2H-pyran-3-yl]-3-{[4-(3-methyloxetan-3-yl)phenyl]amino}1H-pyrazole-4-carboxamide], the 50% inhibitory concentration (IC50) at JAK1 amounted to 6 nM; at JAK2 ([ATP] 8.5 μM), 21 nM.

Take `N#C[C@@H]1CN(C(=O)OCCc2ccccc2)CC[C@@H]1n1cc(C(N)=O)c(Nc2ccc(F)cc2)n1` (racemic) [Example 5-48, 2-phenylethyl (3R,4S and 3S,4R)-4-{4-carbamoyl-3-[(4-fluorophenyl)amino]-1H-pyrazol-1-yl}-3-cyanopiperidine-1-carboxylate]: the IC50 on JAK1 was 403 nM; on JAK2 ([ATP] 8.5 μM) it was greater than 1500 nM.

Consider `CN1CCC(OC(=O)N2CC[C@@H](n3cc(C(N)=O)c(Nc4ccc(F)cc4)n3)[C@H](C#N)C2)CC1` (racemic) [Example 5-26, 1-methylpiperidin-4-yl (3R,4R and 3S,4S)-4-{4-carbamoyl-3-[(4-fluorophenyl)amino]-1H-pyrazol-1-yl}-3-cyanopiperidine-1-carboxylate], for which the concentration for half-maximal inhibition (IC50) is 58 nM on JAK1 and greater than 1500 nM on JAK2 ([ATP] 8.5 μM).

In the case of `N#C[C@@H]1CN(Cc2ccon2)CC[C@H]1n1cc(C(N)=O)c(Nc2ccc(F)cc2)n1` (racemic) [Example 6-24, 1-[(3R,4R and 3S,4S)-3-cyano-1-(isoxazol-3-ylmethyl)piperidin-4-yl]-3-[(4-fluorophenyl)amino]-1H-pyrazole-4-carboxamide], the IC50 is 3 nM at JAK1 and 34 nM at JAK2 ([ATP] 8.5 μM).

Regarding `N#C[C@@H]1CN(C(=O)OC(CF)CF)CC[C@@H]1n1cc(C(N)=O)c(Nc2ccc(F)cc2)n1` (racemic) [Example 5-47, 2-fluoro-1-(fluoromethyl)ethyl (3R,4S and 3S,4R)-4-{4-carbamoyl-3-[(4-fluorophenyl)amino]-1H-pyrazol-1-yl}-3-cyanopiperidine-1-carboxylate], the half-maximal inhibitory concentration (IC50) at JAK1 was determined as 121 nM; on JAK2 ([ATP] 8.5 μM), 1340 nM.

For the molecule `C[C@@H]1C[C@H](C#N)[C@@H](n2cc(C(N)=O)c(Nc3ccnc(F)c3)n2)CO1` (mixture of isomers) [Example 10-1, 1-((3R,4S,6R and 3S,4R,6S)-4-Cyano-6-methyltetrahydro-2H-pyran-3-yl)-3-((2-fluoropyridin-4-yl)amino)-1H-pyrazole-4-carboxamide], the half-inhibitory concentration (IC50) on JAK1 amounted to 5 nM; at JAK2 ([ATP] […]) it was 25 nM.

Consider `N#C[C@H]1CCNCC1n1cc(C(N)=O)c(Nc2ccc(F)cc2)n1` (mixture of isomers) [Example 3-1, 1-[(3R,4S and 3S,4R)-4-cyanopiperidin-3-yl]-3-[(4-fluorophenyl)amino]-1H-pyrazole-4-carboxamide], for which the results for the half-maximal inhibitory concentration (IC50) at JAK1 and at JAK2 ([ATP] 8.5 μM) were 13 nM and 125 nM, respectively.

`N#C[C@H]1CCOC[C@@H]1n1cc(C(N)=O)c(Nc2ccc(OC(F)(F)F)cc2)n1` (single isomer, unassigned) [Example 9-20, 1-[(3R,4S or 3S,4R)-4-cyanotetrahydro-2H-pyran-3-yl]-3-{[4-(trifluoromethoxy)phenyl]amino}-1H-pyrazole-4-carboxamide]: the IC50 at JAK1 was 7 nM; at JAK2 ([ATP] 8.5 μM), 52 nM.

Turning to `N#C[C@@H]1CCOC[C@H]1n1cc(C(N)=O)c(Nc2cncc(F)c2)n1` (single isomer, unassigned) [Example 9-31, 1-[(3S,4R or 3R,4S)-4-cyanotetrahydro-2H-pyran-3-yl]-3-[(5-fluoropyridin-3-yl)amino]-1H-pyrazole-4-carboxamide], the IC50 at JAK1 is 0.9 nM; at JAK2 ([ATP] 8.5 μM), 7 nM.

For the molecule `CC(OC(=O)N1CC[C@H](n2cc(C(N)=O)c(Nc3ccc(F)cc3)n2)[C@H](C#N)C1)C(F)(F)F` (mixture of isomers) [Example 5-43, 2,2,2-trifluoro-1-methylethyl (3R,4S and 3S,4R)-4-{4-carbamoyl-3-[(4-fluorophenyl)amino]-1H-pyrazol-1-yl}-3-cyanopiperidine-1-carboxylate], the IC50 on JAK1 is 188 nM; on JAK2 ([ATP] 8.5 μM), greater than 1500 nM.

Regarding `CC(C)(C)COC(=O)N1CC[C@@H](C#N)C(n2cc(C(N)=O)c(Nc3ccc(F)cc3)n2)C1` (mixture of isomers) [Example 5-80, 2,2-dimethylpropyl (3S,4R and 3R,4S)-3-{4-carbamoyl-3-[(4-fluorophenyl)amino]-1H-pyrazol-1-yl}-4-cyanopiperidine-1-carboxylate], the results for the concentration for half-maximal inhibition (IC50) at JAK1 and at JAK2 ([ATP] 8.5 μM) were 6 nM and 145 nM, respectively.

Consider `Cc1c(CN2CC[C@@H](C#N)[C@H](n3cc(C(N)=O)c(Nc4ccc(F)cc4)n3)C2)cnn1C` (racemic) [Example 6-15, 1-{(3S,4R and 3R,4S)-4-cyano-1-[(1,5-dimethyl-1H-pyrazol-4-yl)methyl]piperidin-3-yl}-3-[(4-fluorophenyl)amino]-1H-pyrazole-4-carboxamide], for which the IC50 on JAK1 came out at 1 nM; on JAK2 ([ATP] 8.5 μM), 20 nM.

For `CC(C)(C)OC(=O)N1CC[C@H](C#N)C(n2cc(C(N)=O)c(Nc3ccc(F)cc3)n2)C1` (mixture of isomers) [Example 2-1, tert-Butyl(3R,4S and 3S,4R)-3-{4-carbamoyl-3-[(4-fluorophenyl)amino]-1H-pyrazol-1-yl}-4-cyanopiperidine-1-carboxylate], the results for the concentration for half-maximal inhibition (IC50) at JAK1 and on JAK2 ([ATP] 8.5 μM) were 6 nM and 39 nM, respectively.

On to `N#C[C@@H]1CCN(C(=O)OCC(F)(F)CO)CC1n1cc(C(N)=O)c(Nc2ccc(F)cc2)n1` (mixture of isomers) [Example 5-74, 2,2-difluoro-3-hydroxypropyl (3S,4R and 3R,4S)-3-{4-carbamoyl-3-[(4-fluorophenyl)amino]-1H-pyrazol-1-yl}-4-cyanopiperidine-1-carboxylate], for which the 50% inhibitory concentration (IC50) came to 1 nM on JAK1 and 14 nM on JAK2 ([ATP] 8.5 μM).

`Cc1ncc(CN2CC[C@@H](n3cc(C(N)=O)c(Nc4ccc(F)cc4)n3)[C@H](C#N)C2)s1` (racemic) [Example 6-37, 1-{(3R,4R and 3S,4S)-3-cyano-1-[(2-methyl-1,3-thiazol-5-yl)methyl]piperidin-4-yl}-3-[(4-fluorophenyl)amino]-1H-pyrazole-4-carboxamide]: the half-inhibitory concentration (IC50) worked out at 5 nM on JAK1 and 104 nM on JAK2 ([ATP] 8.5 μM).

`N#C[C@@H]1CCN(C(=O)OC2COC2)CC1n1cc(C(N)=O)c(Nc2ccc(F)cc2)n1` (mixture of isomers) [Example 5-89, oxetan-3-yl (3S,4R and 3R,4S)-3-{4-carbamoyl-3-[(4-fluorophenyl)amino]-1H-pyrazol-1-yl}-4-cyanopiperidine-1-carboxylate]: the half-inhibitory concentration (IC50) at JAK1 came out at 3 nM; at JAK2 ([ATP] 8.5 μM), 43 nM.

With `COCCOC(=O)N1CC[C@H](n2cc(C(N)=O)c(Nc3ccc(F)cc3)n2)[C@H](C#N)C1` (racemic) [Example 5-54, 2-methoxyethyl (3R,4S and 3S,4R)-4-{4-carbamoyl-3-[(4-fluorophenyl)amino]-1H-pyrazol-1-yl}-3-cyanopiperidine-1-carboxylate], the figures for the IC50 on JAK1 and at JAK2 ([ATP] 8.5 μM) were 529 nM and greater than 1500 nM, respectively.

As for `CC(C)(COC(=O)N1CC[C@@H](C#N)[C@H](n2cc(C(N)=O)c(Nc3ccc(F)cc3)n2)C1)n1cccn1` (mixture of isomers) [Example 5-92, 2-methyl-2-(1H-pyrazol-1-yl)propyl (3S,4Rand 3R, 4S)-3-{4-carbamoyl-3-[(4-fluorophenyl)amino]-1H-pyrazol-1-yl}-4-cyanopiperidine-1-carboxylate], the half-maximal inhibitory concentration (IC50) turned out to be 27 nM at JAK1 and 383 nM on JAK2 ([ATP] […]).
